EP1366764A1, “Method of screening for calcium receptor-active molecules” (The Brigham & Women's Hospital, Inc., priority 1993, dated 1994)
Like-named read-outs stand apart in the source and are kept apart here. Values belong to the molecule of their own block, whether it stands above or below them.

Legend:
[1] = Hypocalcemic activity in vivo (serum or whole blood ionized Ca2+, PTH) in rats
[2] = Net positive charge of the molecule; assay type: physicochemical
[3] = system: rat osteoclasts; assay: Measurement of [Ca2+]i in single rat osteoclasts (indo-1); assay type: cell-based; conditions: for EC50: Osteoclast
[4] = Serum ionized Ca2+ in the 5/6 nephrectomized rat (model of secondary hyperparathyroidism); assay type: in vivo, rats; conditions: 10 mg/kg i.p.
Text: An accepted and widely used animal model of secondary hyperparathyroidism arising from chronic renal failure is the 5/6 nephrectomized rat. Animals receiving such surgery become initially hypocalcemic and, to maintain serum Ca^2+ levels, there is a compensatory hyperplasia of the parathyroid glands and elevated levels of circulating PTH. Male Sprague-Dawley rats (250 g) received a 5/6 nephrectomy and were allowed to recover for 2 weeks. At this time they were normocalcemic (due to elevated levels of serum PTH).

[5] = Serum ionized Ca2+ in parathyroidectomized rats; assay type: in vivo
Text: To determine the primary target tissue upon which NPS 467 acts to cause a hypocalcemic response, the para thyroid glands in rats were surgically removed.

[6] = system: human parathyroid cells; assay: Measurement of [Ca2+]i (fura-2) in human parathyroid cells; assay type: cell-based
[7] = system: rMTC 6-23 cells; assay: Measurement of cytosolic Ca2+ in C-cells (fura-2); assay type: cell-based, rat; conditions: for EC50: read-out: EC50 (C-CELL)
[8] = target: T1, Ca^2+ receptor (Homo sapiens, UniProt P41180); assay: Cl- current in Xenopus oocytes injected with human parathyroid cell mRNA; assay type: cell-based; conditions: oocytes injected with mRNA from human parathyroid cells
T1 construct: Oocytes were injected with poly(A)^+-enriched mRNA from human parathyroid tissue; expressed in transfected cells; host or cells: Xenopus laevis oocytes injected with poly(A)+ mRNA from human hyperplastic parathyroid glands (secondary HPT)
T1 sequence (P41180 20-1078): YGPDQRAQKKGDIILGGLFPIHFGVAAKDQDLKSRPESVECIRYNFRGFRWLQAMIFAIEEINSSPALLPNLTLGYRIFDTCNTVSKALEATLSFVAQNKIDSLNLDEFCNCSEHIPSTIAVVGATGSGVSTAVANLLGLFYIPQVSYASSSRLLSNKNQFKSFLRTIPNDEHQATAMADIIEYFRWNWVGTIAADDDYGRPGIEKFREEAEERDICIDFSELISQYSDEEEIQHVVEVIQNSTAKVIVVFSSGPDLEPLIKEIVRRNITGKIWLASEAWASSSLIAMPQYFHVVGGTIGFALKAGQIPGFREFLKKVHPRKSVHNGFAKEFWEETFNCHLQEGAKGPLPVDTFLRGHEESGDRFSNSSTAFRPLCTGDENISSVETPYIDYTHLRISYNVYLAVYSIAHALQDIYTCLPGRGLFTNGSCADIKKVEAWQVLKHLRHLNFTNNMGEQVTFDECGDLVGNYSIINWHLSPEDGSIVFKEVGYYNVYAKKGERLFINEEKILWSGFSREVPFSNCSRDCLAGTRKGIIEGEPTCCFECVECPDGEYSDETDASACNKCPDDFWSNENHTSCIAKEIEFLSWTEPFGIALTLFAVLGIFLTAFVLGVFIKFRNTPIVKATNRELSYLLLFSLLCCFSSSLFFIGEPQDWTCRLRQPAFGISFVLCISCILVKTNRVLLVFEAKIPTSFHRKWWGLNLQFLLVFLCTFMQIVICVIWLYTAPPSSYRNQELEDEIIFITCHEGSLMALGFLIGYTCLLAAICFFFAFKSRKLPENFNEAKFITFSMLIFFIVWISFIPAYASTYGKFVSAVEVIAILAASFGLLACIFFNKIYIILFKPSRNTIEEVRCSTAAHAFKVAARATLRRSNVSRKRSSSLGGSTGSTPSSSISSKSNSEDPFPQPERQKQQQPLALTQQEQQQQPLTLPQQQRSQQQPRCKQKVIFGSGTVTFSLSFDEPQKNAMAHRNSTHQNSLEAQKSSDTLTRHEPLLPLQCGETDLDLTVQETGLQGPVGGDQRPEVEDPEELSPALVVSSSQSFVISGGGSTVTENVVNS

[9] = rat osteoclasts, indo-1, "inactive" = no increase in cytosolic Ca2+ at 1 mM or 1-5 mM (footnote)
[10] = rMTC 6-23 cells, fura-2, "inactive" = no increase in cytosolic Ca2+ at 1 mM or 1-5 mM (footnote)

Molecule: COc1cccc(C(C)NCCCc2ccccc2)c1 (racemic) [NPS 467]
return of hypocalcemic effect toward control ([1]; 25 mg/kg (Fig. 40)): returned toward control levels after 24 hours | time of maximal hypocalcemic effect ([1]; 25 mg/kg (Fig. 40)): maximal within three hours | serum albumin or phosphate levels ([1]; any of the doses examined): no change | circulating levels of PTH ([1]; doses effective in lowering blood Ca2+, preliminary studies): dose-dependent reduction | serum or whole blood Ca^2+ ([1]; i.p., low calcium diet, three hours after administration): dose-dependent reduction

Molecule: NCCCCCCCCCCCCN [1,12-diaminododecane (DADD), 1,12-diaminododecane]
Net (+) Charge ([2]; at physiological pH (pH 7.3)): +2

Molecule: COc1cccc([C@@H](C)NCCCc2ccccc2)c1 (single isomer, unassigned) [NPS R-467]
EC50 [3, 9]: > 100 µM | decrease in serum ionized Ca^2+ from the control level ([1]; 10 mg/kg i.p., single dose, rats on normal calcium-replete diet, at maximum): 22% | time serum ionized Ca^2+ remained depressed ([1]; 10 mg/kg i.p., normal diet): up to 6 hours | time to maximal fall in serum ionized Ca^2+ ([1]; 10 mg/kg i.p., normal diet): ≤ 1 h | potency in lowering serum Ca^2+ in vivo, R- versus S-isomer ([1]; each compound at 5 mg/kg body weight): more potent than the S-isomer | serum levels of ionized Ca^2+ after oral dosing ([1]; single oral dose in corn oil by gavage, three hours, fasted rats): dose-dependent reduction | time to fall in serum ionized Ca^2+ [4]: ≤ 2 h | serum ionized Ca^2+ levels, % of controls ([4]; 5/6 nephrectomized rats, 2 weeks after surgery): 83 % of controls | change in serum ionized Ca^2+ levels ([5]; 10 mg/kg i.p., single dose, over 6 hours): did not cause any change

Molecule: COc1cccc([C@@H](C)NCCCc2ccccc2Cl)c1 [NPS R-568]
EC50 ([6]; read-out: EC50 for the mobilization of intracellular Ca^2+ / increase in [Ca^2+]i, human parathyroid cells (adenoma)): 3 µM | EC50 ([7]; Rattus norvegicus, rMTC 6-23 cells, fura-2, "inactive" = no increase in cytosolic Ca2+ at 1 mM or 1-5 mM (footnote)): > 300 µM | EC50 [3, 9]: 200 µM | ED50 ([1]; Rattus norvegicus, read-out: ED50 for decrease in the levels of serum Ca^2+, oral administration to rats): 7 mg/kg | hypocalcemic response in parathyroidectomized rats ([5]; oral administration): fails to elicit a hypocalcemic response

Molecule: COc1ccc(CCN(C)CCCC(C#N)(c2ccc(OC)c(OC)c2)C(C)C)cc1OC (stereo not drawn) [verapamil]
increase in [Ca^2+]i ([3]; 100 µM): caused no detectable increase in [Ca^2+]i

Molecule: NCCCNCCCCNCCCNCCCNCCCNC(=O)Cc1c[nH]c2ccccc12 [NPS 019]
EC50 [7, 10]: 5 µM

Molecule: NCCCNCCCCNCCCNCCCN(O)CCCNC(=O)Cc1c[nH]c2cccc(O)c12 [NPS 015]
EC50 (C-CELL) [7, 10]: inactive | IC50 ([7]; read-out: IC50 for block of extracellular Ca^2+-induced increases in [Ca^2+]i, rMTC cells, block of the L-type voltage-sensitive Ca2+ channel): 3 µM

Molecule: NCCCNCCCCNCCCN [spermine]
increase in [Ca^2+]i ([6]; 300 µM): only a small increase in [Ca^2+]i | effect on basal [Ca^2+]i ([7]; spermine 10 mM, neomycin B 5 mM): without effect | effect on the response to subsequent extracellular Ca^2+ ([3]; neomycin 10 mM (25 mM extracellular Ca2+), spermine 20 mM, verapamil 100 µM): did depress the response to extracellular Ca^2+ | increases in [Ca^2+]i in rat osteoclasts ([3]; neomycin 10 mM, spermine 10 or 20 mM): Neither neomycin (10 mM) nor spermine (10 or 20 mM) caused increases | increase in [Ca^2+]i in osteoclasts ([3]; neomycin B 1 mM, spermine 1 or 5 mM): failed to evoke any increase in [Ca^2+]i

Molecule: NC(=O)C[C@H](NC(=O)Cc1c[nH]c2cccc(O)c12)C(=O)NCCCCCNCCCNCCCNC(=O)[C@@H](N)CCCN=C(N)N [Argiotoxin-659]
Net (+) Charge ([2]; at physiological pH (pH 7.3)): +4

Molecule: NCCCNCCCCNCCCNCCCN(O)CCCNC(=O)Cc1c[nH]c2ccccc12 [NPS 017]
EC50 (OSTEOCLAST) [3, 9]: inactive

Molecule: N^1,N^1,N^5,N^14,N^14-tetrakis-(3-aminopropyl)spermine [NPS 382]
concentration causing the mobilization of intracellular Ca^2+ in oocytes [8]: 5000 µM | Net (+) Charge ([2]; pH 7.3): +8

Molecule: NCCCN1CCCN(CCCN)CCN(CCCN)CCCN(CCCN)CC1 [NPS 383]
Net (+) Charge ([2]; at physiological pH (pH 7.3)): +8

Molecule: NCCCN(CCCN)CCCN(CCCN)CCCCN(CCCN)CCCN(CCCN)CCCN [NPS 381, N^1,N^1,N^5,N^10,N^14,N^14-hexakis-(3-aminopropyl) spermine]
Net (+) Charge ([2]; at physiological pH (pH 7.3)): +10

Continued, in another order:

Net (+) Charge ([2]; at physiological pH (pH 7.3)): +4
Molecule: NCCNCCNCCN [Triethylenetramine (TETA), triethylenetetramine]

Net (+) Charge ([2]; at physiological pH (pH 7.3)): +5
Molecule: NCCNCCNCCNCCN [Tetraethylenepentamine (TEPA), Tetraethylenepentamine]

Net (+) Charge ([2]; at physiological pH (pH 7.3)): +3
Molecule: [H]/N=C(/N)N[C@H]1[C@H](O)[C@@H](O)[C@H](O[C@@H]2O[C@@H](C)[C@](O)(C=O)[C@H]2O[C@@H]2O[C@@H](CO)[C@H](O)[C@@H](O)[C@@H]2NC)[C@@H](N/C(N)=N\[H])[C@@H]1O [streptomycin]

Net (+) Charge ([2]; at physiological pH (pH 7.3)): +5
Molecule: NC[C@H]1O[C@H](O[C@H]2[C@H](O)[C@@H](O[C@H]3O[C@H](CO)[C@@H](O)[C@H](N)[C@H]3O)[C@H](N)C[C@@H]2N)[C@H](N)[C@@H](O)[C@@H]1O [bekanamycin]

Net (+) Charge ([2]; at physiological pH (pH 7.3)): +1
Molecule: CCC[C@@H]1C[C@@H](C(=O)N[C@@H]([C@H]2O[C@H](SC)[C@H](O)[C@@H](O)[C@H]2O)[C@@H](C)O)N(C)C1 [lincomycin]

Net (+) Charge ([2]; at physiological pH (pH 7.3)): +5
Molecule: gentamicin

concentration causing the mobilization of intracellular Ca^2+ in oocytes [8]: 135 µM | Net (+) Charge ([2]; at physiological pH (pH 7.3)): +6
Molecule: C1CNCCNCCNCCNCCNCCN1 [hexacyclen, 1,4,7,10,13,16-hexaaza-cyclooctadecane]

Net (+) Charge ([2]; at physiological pH (pH 7.3)): +3
Molecule: NCCCCNCCCN [spermidine]
increase in [Ca^2+]i, % of that evoked by a maximal concentration of extracellular Ca^2+ ([3]; 1 mM): about 10%
